Positions of bridges follow the written chain, without caps; N, C: chain ends. No end group written: not given here.
B1: BMP-7: recombinant human mature BMP-7 (BMP-7 or TDF-1), positive control therapy (protein)
chain: STGSKQRSQNRSKTPKNQEALRMANVAENSSSDQRQACKKHELYVSFRDLGWQDWIIAPEGYAAYYCEGECAFPLNSYMNATNHAIVQTLVHFINPETVPKPCCAPTQLNAISVLYFDDSSNVILKKYRNMVVRACGCH

Legend:
STZ CD1 mice = assay: Streptozotocin (STZ)-induced diabetic nephropathy model; format: in vivo, mouse; details: ip 5 mg/kg/24 hr, month 5 through 6
Method: Reversal of interstitial fibrosis by TDFRP compounds in a CD1 mouse model of streptozotocin (STZ)-induced diabetic nephropathy. A. Schematic of the STZ experimental protocol. Mice were injected with streptozotocin at Day 0 (D0) to induce diabetes and renal injury and sacrificed at 6 months (6M). Vehicle or BMP-7 (positive control) was administered from D0 through 6 months (6M). TDFRP (SEQ ID NO:45) was administered either orally or intraperitoneally from month 5 (5M) through 6M for 30 total days.; B: Kidney section of vehicle-treated STZ animal showing significant interstitial fibrosis; C: Kidney section of STZ animal that received ip administration of TDFRP compound (SEQ ID NO:45) (5 mg/kg/24 hr).
STZ-induced Type 1 diabetes is a widely used experimental model for diabetic nephropathy. Mice given iv STZ develop a progressive loss of pancreatic beta cells culminating in diabetes and renal damage within a six month period of time. In a typical experiment, TDFRP compounds can alleviate fibrosis, reduce proteinuria and protect the kidneys from STZ damage.
The effect of TDFRP compounds on cell damage due to diabetic nephropathy is measured by the method of Wang and coworkers (Wang et al., (2003) 63(6): 2037) (FIG. 8A). Diabetes is induced in 200 g rats by a single dose of streptozotocin.

[1] = test system: rat osteosarcoma (17/2.8) cells; assay: Rat osteosarcoma (ROS) cell-based alkaline phosphatase assay; details: 0.02-200 uM, 2 days, relative to BMP-7 standard
Method: BMP interactions with Type I and Type II receptors can induce alkaline phosphatase activity, a marker for osteoblast activity, in ROS cells. An assay procedure as described in Maliakal, J. C., Asahina, I., Hauschka, P. V., and Sampath, T. K. (1994) Growth factors 11, 227-234, was used to determine the biological activities of TDFRP compounds. In a typical experiment, rat osteosarcoma (17/2.8) cells are plated in 96 well plates (3.0×10^4 cells/well) and incubated overnight at 37 C in 5-6% CO2 incubator. The next day, healthy and confluent cells are treated with increasing concentrations of BMP-7 standard (1-10,000 ng/ml) served as positive control or TDFRP compounds (0.02-200 uM) prepared in medium containing 1% FBS and incubated for 2 days at 37 C in 5-6% CO2 incubator. The cellular content of alkaline phosphatase activity is determined by the method of Reddi and Huggins (Reddi, A. H., and Huggins, C. B (1972) Proc. Natl. Acad. Sci. USA 69, 1601-1605). Enzyme estimations are performed in 96 well plates. Following removal of culture medium, cells are washed with pre-warmed PBS (150 ul) and incubated in 100 ul of pre-warmed 1% Triton X-100 for 30 minutes at 37 C. Plates are centrifuged for 10 minutes at full speed, and recovered samples (15 ul) are assayed for enzyme activity by adding 90 ul p-nitrophenyl phosphate (Sigma) as a substrate in 0.05 M glycine-NaOH buffer, pH 9.3 and incubating for 20 minutes at 37 C. The reaction is stopped by adding 75 ul of 0.2 N NaOH/well and absorbance at 405/490 nm is measured on a Dynatech MR 700 plate reader. Results are expressed as relative activities compared to a BMP-7 standard.
BMP interactions with Type I and Type II receptors can induce alkaline phosphatase activity, a marker for osteoblast activity, in ROS cells. An assay procedure as described earlier (Maliakal, J. C., Asahina, I., Hauschka, P. V., and Sampath, T. K. (1994) Growth factors 11, 227-234) was used to determine the biological activities of TDFRP compounds. In a typical experiment, rat osteosarcoma (17/2.8) cells are plated in 96 well plates (3.0×10^4 cells/well) and incubated overnight at 37° C. in 5-6% CO2 incubator. […] The cellular content of alkaline phosphatase activity is determined by the method of Reddi and Huggins (Reddi, A. H., and Huggins, C. B (1972) Proc. Natl. Acad. Sci. USA 69, 1601-1605). […] The reaction is stopped by adding 75 ul of 0.2 N NaOH/well and absorbance at 405/490 nm is measured on a Dynatech MR 700 plate reader. Results are expressed as relative activities compared to a BMP-7 standard.

[2] = test system: bladder cancer cells (5637); assay: Cisplatin-induced apoptosis/necrosis in bladder cancer cells; format: cell-based, human; details: cisplatin at different concentrations
NTN mice = details: cited from earlier work
[3] = test system: renal tubular epithelial cells; details: 100 ng/ml, 48 hours; cited from earlier work

Molecule	renal interstitial fibrosis (STZ CD1 mice)	induction of alkaline phosphatase activity [1]	apoptosis/necrosis induced by cisplatin (interference with anti-tumor activity) [2]	progression to chronic renal disease (NTN mice; about 300 micrograms/kg, starting after one week of NTN)	renal pathology (NTN mice; treatment from week 3 or week 4 through week 6)	TGF-beta1 induced EMT [3]
CYFDDSSNVLCKKYRS (disulfide 1-11 (inferred); not fully specified) [SEQ ID NO:45]	effectively reversed	did not induce	does not alter	–	–	–
B1	–	–	–	prevent progression to chronic renal disease	almost completely reversed renal pathology	reverses
